Source: the NIST ThermoML archive (doi:10.1016/j.fluid.2018.01.030)

Assays:
[1] = 101.33 kPa, Liquid; for viscosity: Capillary tube (Ostwald / Ubbelohde) method; for mass density: Pycnometric method
[2] = wn = mass fraction of the nth substance listed; details: for surface tension liquid-gas: Pendant drop shape; for viscosity / mass density: 101 kPa, Liquid; for viscosity: Capillary tube (Ostwald / Ubbelohde) method; for mass density: Pycnometric method

NCCN1CCNCC1 [N-(β-aminoethyl)piperazine)]
[1]
Details | mass density [kg/m3] | viscosity [mPa·s]
303.2 K | 981.129 | 14.18
313.2 K | 977.356 | 8.669
323.2 K | 973.989 | 5.626
333.2 K | 969.461 | 4.481
343.2 K | 965.122 | 3.697

OCCNCCO [diethanolamine] + O
surface tension liquid-gas [mN/m], [2]
Details | 313.2 K | 323.2 K | 333.2 K
w1 = 0.1 | 60.42 | 59.18 | 58.85
w1 = 0.2 | 63.07 | 62.23 | 60.56
w1 = 0.3 | 61.57 | 60.13 | 58.43

CN(CCO)CCO [N-methyldiethanolamine] + O
[2]
Details | mass density, 303.2 K [kg/m3] | mass density, 313.2 K [kg/m3] | mass density, 323.2 K [kg/m3] | mass density, 333.2 K [kg/m3] | viscosity, 303.2 K [mPa·s] | viscosity, 313.2 K [mPa·s] | viscosity, 323.2 K [mPa·s] | viscosity, 333.2 K [mPa·s]
w1 = 0.1 | 1003.8 | 999.5 | 995.2 | 990.5 | 1.164 | 0.912 | 0.752 | 0.635
w1 = 0.2 | 1012.4 | 1008.4 | 1003.5 | 998.6 | 1.635 | 1.314 | 1.06 | 0.867
w1 = 0.3 | 1024.5 | 1019.5 | 1015.2 | 1008.2 | 2.634 | 1.946 | 1.517 | 1.219
